Reference: patent publication US12474342B2, “Methods for treating cancer and the use of biomarkers as a predictor of clinical sensitivity to therapies” (CELGENE CORPORATION, priority 2016, dated 2025)
Where two headings read alike, the source gives them in different places.

Experiments:
ATF4 = ATF4 protein induction, western blot, HNT-34; format: cell-based, human; conditions: HNT-34, 10 nM Compound D
Experimental: (§3) The time course of GSPT1 degradation was monitored by western blot analysis of HNT-34 AML cells and normal PBMCs (FIGS. 32A-32D) following incubation with Compound D (1, 10, and 100 nM).

XBP1 = XBP1 assay in U937 cells; format: cell-based, human; conditions: 0.5 μM TG for 6 hours or 4 μM Compound D for 8, 16, or 32 hours
Experimental: IRE1, a kinase that activates the XBP1 pathway, was knocked out in U937 cells by CRISPR-mediated gene editing using IRE1 CRISPR constructs. Wild type U937 cells or IRE1 CRISPR knockout U937 cells were treated with 0.5 μM TG for 6 hours or 4 μM Compound D for 8, 16, or 32 hours, then subject to XBP1 assay.

DDIT3 (CHOP) = DDIT3 (CHOP) mRNA, quantitative PCR, KG-1; format: cell-based, human; conditions: KG-1, 100 nM Compound D or greater
Experimental: (§1) Compound D regulates UPR stress RNAs, ATF3 and CHOP, and nonsense-mediated decay (NMD) RNAs, SRSF3 and SRSF6, in KG-1 cells in both dose- and time-dependent manners. KG-1 cells were plated in 10 cm^2 dishes and incubated overnight. The following day, KG-1 cells were treated with a 6-point dose response (0, 3, 10, 30, 100, 300 nM) of Compound D and incubated for 2, 4, 8, and 20 hours. Cells were removed from dishes and cell pellets were prepared for RNA isolation (Qiagen RNA isolation kit). Total RNA was quantitated using NanoDrop spectrophotometer and cDNA was reversely transcribed using 1 μg total RNA. Quantitative PCR was performed in replicates for each sample using primer sets for ATF3, CHOP, and both NMD and normal transcripts of SRSF3 and SRSF6. Data was doubly normalized to the 18S housekeeping gene and 2 hour DMSO control. Normalized RNA expression (y-axis) versus drug concentration in nM (x-axis) for each time point was plotted. SRSF3-1 NMD and SRSF6-1 NMD depict amplification of NMD transcript for SRSF3 and SRSF6, respectively. SRSF3-3 Normal and SRSF6-3 Normal depict amplification of normal transcript for SRSF3 and SRSF6 genes, respectively. […] FIGS. 29A-29F show effects of Compound D treatment on UPR and NMD pathways in KG-1 cells. […] Additionally, 100 nM Compound D or greater induced the mRNA levels of ATF3 and DDIT3 (CHOP) approximately 100-fold and 10-fold, respectively. […]

KG-1 cells [1] = test: Apoptosis (caspase 3/7 activation), KG-1; format: cell-based, human; conditions: for EC50: Homo sapiens, read-out: Compound D-induced Apoptosis EC50
KASUMI-1 cells = test: Apoptosis (caspase 3/7 activation), Kasumi-1; format: cell-based, human
KG-1 cells [2] = test: Anti-proliferation CTG assay, KG-1; format: cell-based, human
Experimental: The effect of depletion of GSPT1 on the anti-proliferative effect of compound Compound D and Compound E was also determined in human acute myelogenous leukemia cell lines AML and KG1. […]

NB-4 cells = test: Anti-proliferation 72-hour CTG assay, NB-4; format: cell-based; conditions: Homo sapiens; NB-4, 72-hour CTG assay; read-out: IC50 of the anti-proliferative effect
Experimental: (§2) A plethora of AML cell lines were treated with serial dilutions of Compound D. IC50 value of the anti-proliferation effect of Compound D (as determined in 72-hour CTG assays) in each cell line is summarized in Table 1.

OCI-AML3 cells = test: Anti-proliferation CTG assay, OCI-AML3; format: cell-based, human
Experimental: as §2
The effect of depletion of GSPT1 on the anti-proliferative effect of compound Compound D and Compound E was also determined in human acute myelogenous leukemia cell lines AML and KG1. Cells were infected with lentiviral vectors expressing control shRNA, shGSPT1-1 or shGSPT1-3 for 7 days and then treated with DMSO, Compound D or Compound E in a titration from 0.0001 μM to 1 μM. Two days after treatment, cell proliferation was measured by CellTiter-Glo cell viability. […] Both shGSPT1-1 and shGSPT1-3 reduced the expression of GSPT1, eRF1, and slightly of CRBN.

GSPT1 = GSPT1 (Homo sapiens, UniProt P15170+Q96SW2); test: GSPT1 protein reduction, western analysis, AML-193; format: cell-based; design: reduction in GSPT1 protein level was evaluated in human normal PBMCs; endogenous in cells; host or cells: primary PBMCs from normal donors (ID 4328, 4379) and AML patients (ID 11SH, 09P6)
Experimental: The time course of the reduction in GSPT1 by Compound D also was studied for up to 48 hours. The progressive degradation of GSPT1 over the course of 1 to 20 hours was evident in the presence of all concentrations of Compound D studied from 3 to 300 nM in HNT-34, HL-60, and ML-2 cells, with little GSPT1 remaining by 20 hours at 100 or 300 nM Compound D in HNT-34 or HL-60 cells (FIG. 34 and FIG. 35C). Time-dependent reduction in GSPT1 was also observed in KG-1 and OCI-AML2 cells at 3 to 1000 nM Compound D, with little GSPT1 remaining in KG-1 cells at 100 to 300 nM at 24 hours or in OCI-AML2 cells at 300 and 1000 nM at 24 hours (FIG. 35D). Loss of GSPT1 occurred more slowly in Kasumi-1, AML-193, and […] cells. […] A positive association (r^2=0.50; […]

ATF3 [3] = test: ATF3 mRNA, quantitative PCR, KG-1; format: cell-based, human; conditions: KG-1, 100 nM Compound D or greater
Experimental: as §1

ATF3 [4] = test: ATF3 protein induction, western blot, HNT-34; format: cell-based, human; conditions: HNT-34, 10 nM Compound D
Experimental: as §3

Sequence of GSPT1 (P15170 1-637 isoform P15170-3): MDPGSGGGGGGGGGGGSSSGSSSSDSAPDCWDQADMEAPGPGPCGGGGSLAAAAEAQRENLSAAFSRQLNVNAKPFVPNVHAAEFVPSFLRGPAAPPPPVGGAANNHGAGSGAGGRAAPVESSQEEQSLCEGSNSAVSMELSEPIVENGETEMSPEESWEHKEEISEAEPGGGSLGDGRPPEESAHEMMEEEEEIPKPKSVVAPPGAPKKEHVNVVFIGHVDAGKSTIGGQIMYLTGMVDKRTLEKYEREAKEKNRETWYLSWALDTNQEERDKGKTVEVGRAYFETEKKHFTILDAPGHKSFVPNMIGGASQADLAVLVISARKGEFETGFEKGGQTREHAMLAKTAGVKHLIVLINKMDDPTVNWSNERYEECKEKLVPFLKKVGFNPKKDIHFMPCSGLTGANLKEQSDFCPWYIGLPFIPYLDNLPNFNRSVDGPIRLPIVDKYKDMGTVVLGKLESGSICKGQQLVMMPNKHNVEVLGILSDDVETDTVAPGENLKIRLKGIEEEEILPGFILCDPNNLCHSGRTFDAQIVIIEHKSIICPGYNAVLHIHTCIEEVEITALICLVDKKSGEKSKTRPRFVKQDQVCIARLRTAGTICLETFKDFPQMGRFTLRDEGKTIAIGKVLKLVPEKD
Sequence of GSPT1 (Q96SW2 whole entry): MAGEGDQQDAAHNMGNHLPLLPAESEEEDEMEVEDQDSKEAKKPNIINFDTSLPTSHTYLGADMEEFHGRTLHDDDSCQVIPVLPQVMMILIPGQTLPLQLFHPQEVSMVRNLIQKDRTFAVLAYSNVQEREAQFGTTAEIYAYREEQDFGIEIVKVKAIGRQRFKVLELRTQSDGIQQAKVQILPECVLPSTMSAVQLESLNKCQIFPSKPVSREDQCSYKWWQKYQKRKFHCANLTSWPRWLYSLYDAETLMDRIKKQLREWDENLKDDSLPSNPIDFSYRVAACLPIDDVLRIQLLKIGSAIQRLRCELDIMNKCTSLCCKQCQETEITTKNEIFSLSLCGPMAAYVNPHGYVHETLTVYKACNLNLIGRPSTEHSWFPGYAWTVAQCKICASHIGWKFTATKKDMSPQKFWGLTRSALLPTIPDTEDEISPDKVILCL
Sequence of GSPT1 (Q16531 whole entry partner): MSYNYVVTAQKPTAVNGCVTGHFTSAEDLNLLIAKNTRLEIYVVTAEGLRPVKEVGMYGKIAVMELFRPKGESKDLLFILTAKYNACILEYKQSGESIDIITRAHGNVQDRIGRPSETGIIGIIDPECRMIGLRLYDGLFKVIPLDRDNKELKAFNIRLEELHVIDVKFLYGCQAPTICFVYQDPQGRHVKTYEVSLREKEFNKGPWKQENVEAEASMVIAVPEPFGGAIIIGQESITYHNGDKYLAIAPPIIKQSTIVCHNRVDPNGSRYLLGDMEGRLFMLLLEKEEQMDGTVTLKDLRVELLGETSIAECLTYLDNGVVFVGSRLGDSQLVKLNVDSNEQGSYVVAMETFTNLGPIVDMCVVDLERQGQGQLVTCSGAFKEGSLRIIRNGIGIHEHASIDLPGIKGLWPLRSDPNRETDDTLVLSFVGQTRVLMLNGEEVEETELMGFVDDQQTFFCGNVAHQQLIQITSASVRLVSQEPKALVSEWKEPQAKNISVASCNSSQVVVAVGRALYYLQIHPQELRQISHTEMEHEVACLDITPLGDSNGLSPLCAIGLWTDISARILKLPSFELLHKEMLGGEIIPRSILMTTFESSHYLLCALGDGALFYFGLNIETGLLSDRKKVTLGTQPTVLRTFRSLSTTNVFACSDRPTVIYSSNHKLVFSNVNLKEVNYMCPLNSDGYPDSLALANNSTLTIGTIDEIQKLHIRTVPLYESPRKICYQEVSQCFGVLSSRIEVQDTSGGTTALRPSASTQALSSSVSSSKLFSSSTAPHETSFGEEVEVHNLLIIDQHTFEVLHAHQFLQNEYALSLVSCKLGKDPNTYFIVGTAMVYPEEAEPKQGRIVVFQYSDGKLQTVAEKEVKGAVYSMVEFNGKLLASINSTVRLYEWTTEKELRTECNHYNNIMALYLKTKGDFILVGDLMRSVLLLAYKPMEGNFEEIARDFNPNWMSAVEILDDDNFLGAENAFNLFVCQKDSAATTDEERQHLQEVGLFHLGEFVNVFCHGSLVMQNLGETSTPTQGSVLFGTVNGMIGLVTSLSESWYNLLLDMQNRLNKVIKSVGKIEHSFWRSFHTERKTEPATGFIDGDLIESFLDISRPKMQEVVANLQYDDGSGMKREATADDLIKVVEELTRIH

SMILES: O=C1CCC(N2Cc3cc(CNC(=O)C(F)(F)c4ccc(Cl)cc4)ccc3C2=O)C(=O)N1 (stereo not drawn) [Compound D, 2-(4-chlorophenyl)-N-((2-(2,6-dioxopiperidin-3-yl)-1-oxoisoindolin-5-yl)methyl)-2,2-difluoroacetamide]
- time of induction of ATF4 protein (ATF4): 8 h
- XBP1 pathway (XBP1): activated the XBP1 pathway
- induction of DDIT3 (CHOP) mRNA level (DDIT3 (CHOP)): ~10 fold
- EC50 (KG-1 cells [1]; KG-1, 12 hr): 53 nM
- EC50 (KG-1 cells [1]; KG-1, 48 hr): 39 nM
- EC50 (KG-1 cells [1]; KG-1, 72 hr): 26 nM
- EC50 (KG-1 cells [1]; KG-1, 96 hr): 25 nM
- average percent increase in apoptosis (KG-1 cells [1]; KG-1, 41 nM, 24 hour time point): 11%
- Average Percent Increase in Apoptosis at 123 nM Compound D, Apoptosis (12 hr) (KG-1 cells [1]; KG-1, 123 nM, 12 hr): 2%
- Average Percent Increase in Apoptosis at 123 nM Compound D, Apoptosis (24 hr) (KG-1 cells [1]; KG-1, 123 nM, 24 hr): 16%
- Average Percent Increase in Apoptosis at 123 nM Compound D, Apoptosis (48 hr) (KG-1 cells [1]; KG-1, 123 nM, 48 hr): 42%
- EC50 (KASUMI-1 cells; Homo sapiens, read-out: Compound D-induced Apoptosis EC50, Kasumi-1, 96 hr): 55 nM
- Average Percent Increase in Apoptosis at 123 nM Compound D, Apoptosis (12 hr) (KASUMI-1 cells; Kasumi-1, 123 nM, 12 hr): 1%
- Average Percent Increase in Apoptosis at 123 nM Compound D, Apoptosis (24 hr) (KASUMI-1 cells; Kasumi-1, 123 nM, 24 hr): 3%
- Average Percent Increase in Apoptosis at 123 nM Compound D, Apoptosis (48 hr) (KASUMI-1 cells; Kasumi-1, 123 nM, 48 hr): 18%
- IC50 (KG-1 cells [2]; Homo sapiens, KG-1, KG-1, Compound F 0 μM, read-out: Inhibition of Cell Proliferation by Compound D (CTG assay) IC50): 10 nM
- IC50 (KG-1 cells [2]; Homo sapiens, KG-1, KG-1, Compound F 30 μM, read-out: Inhibition of Cell Proliferation by Compound D (CTG assay) IC50): 1500 nM
- IC50 (KG-1 cells [2]; Homo sapiens, KG-1, 72-hour CTG assay, read-out: IC50 of the anti-proliferative effect): 15 nM
- cell proliferation (CellTiter-Glo) (KG-1 cells [2]; KG1 parental or control shRNA cells, 0.0001 μM to 1 μM, two days): exhibited anti-proliferative effect, particularly at high concentration
- IC50 (KG-1 cells [2]; read-out: Inhibition of Cell Proliferation by Compound D (CTG assay) IC50): 6800 nM
- IC50 (NB-4 cells): 17 nM
- cell proliferation (CellTiter-Glo) (OCI-AML3 cells; AML3 parental or control shRNA cells, 0.0001 μM to 1 μM, two days): exhibited anti-proliferative effect, particularly at high concentration
- IC50 (OCI-AML3 cells; Homo sapiens, OCI-AML-3, OCI-AML3, 72-hour CTG assay, read-out: IC50 of the anti-proliferative effect): 3400 nM
- Percent Reduction at 100 nM Compound D GSPTI (8 hr) (GSPT1; AML-193, 100 nM, 8 hr): 49%
- GSPT1 reduction (GSPT1; AML-193, 300 nM Compound D, 8 hours): 61%
- induction of ATF3 mRNA level (ATF3 [3]): approximately 100 fold
- time of induction of ATF3 protein (ATF3 [4]): 12 h
